Measurements as given in patent US20140343000A1 (priority 2011, published 2014).
pEC50: −log10 of the molar value.

These compounds were tested on recombinant NL4-3 virus (Renilla luciferase in nef, Gag P373S; NLRluc) in MT-2 cells (assay: whole plant or invertebrate). Conditions: Renilla, NL43, luciferase activity in cells infected for 4-5 days with NLRluc recombinants, serial dilutions of inhibitor; class symbols (key in Table 1); read-out: EC50.
Format: cell-based, HIV
How it was run: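 MT-2 cells in RPMI 1640 with 10% heat-inactivated FBS were infected with the reporter virus, made by transfecting the proviral clone into 293T cells, and cultured 4-5 days with serial inhibitor dilutions. Antiviral activity was quantified from Renilla luciferase activity measured in lysed cells.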

SMILES | pEC50
CC(C)[C@@H]1CC[C@]2(NCCN3CCC(S(C)(=O)=O)CC3)CC[C@]3(C)[C@H](CC[C@@H]4[C@@]5(C)CC[C@H](c6ccc(C(=O)O)cc6)C(C)(C)[C@@H]5CC[C@]43C)[C@@H]12 [Example B18, 4-((1S,3aS,5aR,5bR,7aS,9S,11aS,11bR,13aR,13bR)-1-isopropyl-5a,5b,8,8,11a-pentamethyl-3a-((2-(4-(methylsulfonyl)piperidin-1-yl)ethyl)amino)icosahydro-1H-cyclopenta[a]chrysen-9-yl)benzoic acid] | > 7.00
C=C(C)[C@@H]1CC[C@]2(NCCN3CCN(S(=O)(=O)CC)CC3)CC[C@]3(C)[C@H](CC[C@@H]4[C@@]5(C)CC=C(c6ccc(C(=O)O)cc6)C(C)(C)[C@@H]5CC[C@]43C)[C@@H]12 [Example B19, 4-((1R,3aS,5aR,5bR,7aR,11aS,11bR,13aR,13bR)-3a-((2-(4-(ethylsulfonyl)piperazin-1-yl)ethyl)amino)-5a,5b,8,8,11a-pentamethyl-1-(prop-1-en-2-yl)-2,3,3a,4,5,5a,5b,6,7,7a,8,11,11a,11b,12,13,13a,13b-octadecahydro-1H-cyclopenta[a]chrysen-9-yl)benzoic acid] | > 7.00
C=C(C)[C@@H]1CC[C@]2(NCCN3CCNCC3)CC[C@]3(C)[C@H](CC[C@@H]4[C@@]5(C)CC=C(c6ccc(C(=O)O)cc6)C(C)(C)[C@@H]5CC[C@]43C)[C@@H]12 [Example B20, 4-((1R,3aS,5aR,5bR,7aR,11aS,11bR,13aR,13bR)-5a,5b,8,8,11a-pentamethyl-3a-((2-(piperazin-1-yl)ethyl)amino)-1-(prop-1-en-2-yl)-2,3,3a,4,5,5a,5b,6,7,7a,8,11,11a,11b,12,13,13a,13b-octadecahydro-1H-cyclopenta[a]chrysen-9-yl)benzoic acid] | > 7.00
C=C(C)[C@@H]1CC[C@]2(NCCNS(C)(=O)=O)CC[C@]3(C)[C@H](CC[C@@H]4[C@@]5(C)CC=C(c6ccc(C(=O)O)cc6)C(C)(C)[C@@H]5CC[C@]43C)[C@@H]12 [Example B21, 4-((1R,3aS,5aR,5bR,7aR,11aS,11bR,13aR,13bR)-5a,5b,8,8,11a-pentamethyl-3a-((2-(methylsulfonamido)ethyl)amino)-1-(prop-1-en-2-yl)-2,3,3a,4,5,5a,5b,6,7,7a,8,11,11a,11b,12,13,13a,13b-octadecahydro-1H-cyclopenta[a]chrysen-9-yl)benzoic acid] | > 7.00
C=C(C)[C@@H]1CC[C@]2(NCCN3CCN(S(=O)(=O)C4CC4)CC3)CC[C@]3(C)[C@H](CC[C@@H]4[C@@]5(C)CC=C(c6ccc(C(=O)O)cc6)C(C)(C)[C@@H]5CC[C@]43C)[C@@H]12 [Example B22, 4-((1R,3aS,5aR,5bR,7aR,11aS,11bR,13aR,13bR)-3a-((2-(4-(cyclopropylsulfonyl)piperazin-1-yl)ethyl)amino)-5a,5b,8,8,11a-pentamethyl-1-(prop-1-en-2-yl)-2,3,3a,4,5,5a,5b,6,7,7a,8,11,11a,11b,12,13,13a,13b-octadecahydro-1H-cyclopenta[a]chrysen-9-yl)benzoic acid] | > 7.00
C=C(C)[C@@H]1CC[C@]2(NCCN3CCN(S(=O)(=O)CCC)CC3)CC[C@]3(C)[C@H](CC[C@@H]4[C@@]5(C)CC=C(c6ccc(C(=O)O)cc6)C(C)(C)[C@@H]5CC[C@]43C)[C@@H]12 [Example B23, 4-((1R,3aS,5aR,5bR,7aR,11aS,11bR,13aR,13bR)-5a,5b,8,8,11a-pentamethyl-1-(prop-1-en-2-yl)-3a-((2-(4-(propylsulfonyl)piperazin-1-yl)ethyl)amino)-2,3,3a,4,5,5a,5b,6,7,7a,8,11,11a,11b,12,13,13a,13b-octadecahydro-1H-cyclopenta[a]chrysen-9-yl)benzoic acid] | > 7.00
C=C(C)[C@@H]1CC[C@]2(NCCN3CCN(C(C)=O)CC3)CC[C@]3(C)[C@H](CC[C@@H]4[C@@]5(C)CC=C(c6ccc(C(=O)O)cc6)C(C)(C)[C@@H]5CC[C@]43C)[C@@H]12 [Example B24, 4-((1R,3aS,5aR,5bR,7aR,11aS,11bR,13aR,13bR)-3a-((2-(4-acetylpiperazin-1-yl)ethyl)amino)-5a,5b,8,8,11a-pentamethyl-1-(prop-1-en-2-yl)-2,3,3a,4,5,5a,5b,6,7,7a,8,11,11a,11b,12,13,13a,13b-octadecahydro-1H-cyclopenta[a]chrysen-9-yl)benzoic acid] | > 7.00
C=C(C)[C@@H]1CC[C@]2(NCCN3CCN(C(=O)C(=O)N(C)C)CC3)CC[C@]3(C)[C@H](CC[C@@H]4[C@@]5(C)CC=C(c6ccc(C(=O)O)cc6)C(C)(C)[C@@H]5CC[C@]43C)[C@@H]12 [Example B25, 4-((1R,3aS,5aR,5bR,7aR,11aS,11bR,13aR,13bR)-3a-((2-(4-(2-(dimethylamino)-2-oxoacetyl)piperazin-1-yl)ethyl)amino)-5a,5b,8,8,11a-pentamethyl-1-(prop-1-en-2-yl)-2,3,3a,4,5,5a,5b,6,7,7a,8,11,11a,11b,12,13,13a,13b-octadecahydro-1H-cyclopenta[a]chrysen-9-yl)benzoic acid] | > 7.00
C=C(C)[C@@H]1CC[C@]2(NCCN3CCN(S(=O)(=O)C(C)C)CC3)CC[C@]3(C)[C@H](CC[C@@H]4[C@@]5(C)CC=C(c6ccc(C(=O)O)cc6)C(C)(C)[C@@H]5CC[C@]43C)[C@@H]12 [Example B26, 4-((1R,3aS,5aR,5bR,7aR,11aS,11bR,13aR,13bR)-3a-((2-(4-(isopropylsulfonyl)piperazin-1-yl)ethyl)amino)-5a,5b,8,8,11a-pentamethyl-1-(prop-1-en-2-yl)-2,3,3a,4,5,5a,5b,6,7,7a,8,11,11a,11b,12,13,13a,13b-octadecahydro-1H-cyclopenta[a]chrysen-9-yl)benzoic acid] | > 7.00
C=C(C)[C@@H]1CC[C@]2(NCCN3CCN(C(C)(C)C)CC3)CC[C@]3(C)[C@H](CC[C@@H]4[C@@]5(C)CC=C(c6ccc(C(=O)O)cc6)C(C)(C)[C@@H]5CC[C@]43C)[C@@H]12 [Example B27, 4-((1R,3aS,5aR,5bR,7aR,11aS,11bR,13aR,13bR)-3a-((2-(4-(tert-butyl)piperazin-1-yl)ethyl)amino)-5a,5b,8,8,11a-pentamethyl-1-(prop-1-en-2-yl)-2,3,3a,4,5,5a,5b,6,7,7a,8,11,11a,11b,12,13,13a,13b-octadecahydro-1H-cyclopenta[a]chrysen-9-yl)benzoic acid] | > 7.00
C=C(C)[C@@H]1CC[C@]2(NCCN3CCN(C)CC3)CC[C@]3(C)[C@H](CC[C@@H]4[C@@]5(C)CC=C(c6ccc(C(=O)O)cc6)C(C)(C)[C@@H]5CC[C@]43C)[C@@H]12 [Example B28, 4-((1R,3aS,5aR,5bR,7aR,11aS,11bR,13aR,13bR)-5a,5b,8,8,11a-pentamethyl-3a-((2-(4-methylpiperazin-1-yl)ethyl)amino)-1-(prop-1-en-2-yl)-2,3,3a,4,5,5a,5b,6,7,7a,8,11,11a,11b,12,13,13a,13b-octadecahydro-1H-cyclopenta[a]chrysen-9-yl)benzoic acid] | > 7.00
C=C(C)[C@@H]1CC[C@]2(NCCN3CCN(C(=O)C(=O)N4CCCCC4)CC3)CC[C@]3(C)[C@H](CC[C@@H]4[C@@]5(C)CC=C(c6ccc(C(=O)O)cc6)C(C)(C)[C@@H]5CC[C@]43C)[C@@H]12 [Example B29, 4-((1R,3aS,5aR,5bR,7aR,11aS,11bR,13aR,13bR)-5a,5b,8,8,11a-pentamethyl-3a-((2-(4-(2-oxo-2-(piperidin-1-yl)acetyl)piperazin-1-yl)ethyl)amino)-1-(prop-1-en-2-yl)-2,3,3a,4,5,5a,5b,6,7,7a,8,11,11a,11b,12,13,13a,13b-octadecahydro-1H-cyclopenta[a]chrysen-9-yl)benzoic acid] | > 7.00
C=C(C)[C@@H]1CC[C@]2(NCCNS(=O)(=O)C(C)C)CC[C@]3(C)[C@H](CC[C@@H]4[C@@]5(C)CC=C(c6ccc(C(=O)O)cc6)C(C)(C)[C@@H]5CC[C@]43C)[C@@H]12 [Example B30, 4-((1R,3aS,5aR,5bR,7aR,11aS,11bR,13aR,13bR)-5a,5b,8,8,11a-pentamethyl-3a-((2-(1-methylethylsulfonamido)ethyl)amino)-1-(prop-1-en-2-yl)-2,3,3a,4,5,5a,5b,6,7,7a,8,11,11a,11b,12,13,13a,13b-octadecahydro-1H-cyclopenta[a]chrysen-9-yl)benzoic acid] | > 7.00
C=C(C)[C@@H]1CC[C@]2(NCCNS(=O)(=O)C3CC3)CC[C@]3(C)[C@H](CC[C@@H]4[C@@]5(C)CC=C(c6ccc(C(=O)O)cc6)C(C)(C)[C@@H]5CC[C@]43C)[C@@H]12 [Example B31, 4-((1R,3aS,5aR,5bR,7aR,11aS,11bR,13aR,13bR)-3a-((2-(cyclopropanesulfonamido)ethyl)amino)-5a,5b,8,8,11a-pentamethyl-1-(prop-1-en-2-yl)-2,3,3a,4,5,5a,5b,6,7,7a,8,11,11a,11b,12,13,13a,13b-octadecahydro-1H-cyclopenta[a]chrysen-9-yl)benzoic acid] | > 7.00
C=C(C)[C@@H]1CC[C@]2(NCCN3CCCCS3(=O)=O)CC[C@]3(C)[C@H](CC[C@@H]4[C@@]5(C)CC=C(c6ccc(C(=O)O)cc6)C(C)(C)[C@@H]5CC[C@]43C)[C@@H]12 [Example B32, 4-((1R,3aS,5aR,5bR,7aR,11aS,11bR,13aR,13bR)-3a-((2-(1,1-dioxido-1,2-thiazinan-2-yl)ethyl)amino)-5a,5b,8,8,11a-pentamethyl-1-(prop-1-en-2-yl)-2,3,3a,4,5,5a,5b,6,7,7a,8,11,11a,11b,12,13,13a,13b-octadecahydro-1H-cyclopenta[a]chrysen-9-yl)benzoic acid] | > 7.00
